Assay results published in patent US9371319B2, “Pyrrolopyridineamino derivatives as MPS1 inhibitors” (priority 2011, dated 2016).

Target: T1, full length MPS1 (Homo sapiens, UniProt P33981)
T1 sequence (P33981 1-857): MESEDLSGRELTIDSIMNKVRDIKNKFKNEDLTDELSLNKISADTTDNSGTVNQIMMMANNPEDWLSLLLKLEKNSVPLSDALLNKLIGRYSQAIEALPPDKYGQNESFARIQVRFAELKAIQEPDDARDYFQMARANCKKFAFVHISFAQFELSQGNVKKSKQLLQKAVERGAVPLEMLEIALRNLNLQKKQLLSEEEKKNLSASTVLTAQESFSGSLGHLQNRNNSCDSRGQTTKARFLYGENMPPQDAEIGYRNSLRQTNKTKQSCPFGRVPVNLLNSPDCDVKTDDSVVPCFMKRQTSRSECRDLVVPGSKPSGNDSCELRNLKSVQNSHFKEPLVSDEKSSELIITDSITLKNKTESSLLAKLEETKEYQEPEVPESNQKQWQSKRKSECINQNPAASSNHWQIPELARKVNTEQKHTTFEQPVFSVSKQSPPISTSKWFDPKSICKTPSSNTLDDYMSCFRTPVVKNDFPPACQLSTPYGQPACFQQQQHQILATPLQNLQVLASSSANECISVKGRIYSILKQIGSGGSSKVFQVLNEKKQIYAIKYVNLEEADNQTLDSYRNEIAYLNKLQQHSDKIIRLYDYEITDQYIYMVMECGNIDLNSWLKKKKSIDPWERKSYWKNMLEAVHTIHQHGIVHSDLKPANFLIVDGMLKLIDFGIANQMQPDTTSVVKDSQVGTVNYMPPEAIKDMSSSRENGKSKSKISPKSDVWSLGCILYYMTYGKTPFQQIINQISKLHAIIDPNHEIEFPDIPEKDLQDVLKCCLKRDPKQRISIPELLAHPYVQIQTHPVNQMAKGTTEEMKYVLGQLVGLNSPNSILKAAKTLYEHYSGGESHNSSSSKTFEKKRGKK
Test: biochemical
Experimental: Measurement of Inhibition of MPS1 Kinase
(5 μM), ATP (10 μM), either DMSO (1% v/v) or the test compound (in the range 0.25 nM-100 μM in 1% DMSO) and assay buffer (50 mM HEPES (pH 7.0), 0.02% NaN3, 0.01% BSA, 0.1 mM Orthovandate, […], 1 μM DTT, Roche protease inhibitor). The reaction was carried out for 60 min at room temperature and stopped by the addition of buffer (10 μl) containing 20 mM EDTA, 0.05% (v/v) Brij-35, in 0.1M HEPES-buffered saline (Free acid, Sigma, UK). The plate was read on a Caliper EZ reader II (Caliper Life Sciences).
The % inhibition of the compounds is calculated relative to the means of selected control wells. […] The % inhibitions at each concentration are then fitted to a 4 parameter logistic fit: y=(a+((b−a)/(1+((c/x^d)))) where a=asym min, b=asym max, c=IC50 and d=hill coefficient

Structure (SMILES) | IC50
Cn1cc(-c2ccc(Cl)c(Nc3cc4[nH]c(-c5cnn(C)c5)cc4cn3)c2)cn1 [Example 184, N-(2-Chloro-5-(1-methyl-1H-pyrazol-4-yl)phenyl)-2-(1-methyl-1H-pyrazol-4-yl)-1H-pyrrolo[3,2-c]pyridin-6-amine] | 548 nM
CCN(C)C(=O)c1ccc(Nc2cc3c(cn2)cc(-c2cnn(C)c2)n3C(=O)OC(C)(C)C)c(Cl)c1 [Example 39] | 4 nM
Cc1ncc(-c2ccc(Nc3cc4c(cn3)cc(-c3cnn(C)c3)n4C(=O)OC(C)C)cc2)n1C [Example 108] | 2 nM
Cn1cc(-c2cc3cnc(Nc4ccc(N5CCCC5=O)cc4Cl)cc3[nH]2)cn1 [Example 136, 1-(3-chloro-4-((2-(1-methyl-1H-pyrazol-4-yl)-1H-pyrrolo[3,2-c]pyridin-6-yl)amino)phenyl)pyrrolidin-2-one] | 18 nM
COC1CN(C(=O)c2ccc(Nc3cc4c(cn3)cc(-c3cnn(C)c3)n4C(=O)OC(C)(C)C)c(Cl)c2)C1 [Example 37] | 8 nM
Cn1cc(-c2cc3cnc(Nc4ccc(-c5cncn5C)cc4Cl)cc3n2C2CCCC2)cn1 [Example 80] | 3 nM
CC(C)n1c(-c2cnn(C)c2)cc2cnc(Nc3ccc(C(=O)N(C)C)cc3Cl)cc21 [Example 74] | 50 nM
CCCOC(=O)n1c(-c2cnn(C)c2)cc2cnc(Nc3ccc(-c4cnc(C)n4C)cc3Cl)cc21 [Example 88] | 2 nM
COc1cc(C(=O)N2CC(OC)C2)ccc1Nc1cc2c(cn1)cc(-c1cnn(C)c1)n2C(=O)OC(C)(C)C [Example 12] | 7 nM
N#Cc1ccc(Nc2cc3[nH]c(-c4cn[nH]c4)cc3cn2)cc1 [Example 177, 4-(2-(1H-pyrazol-4-yl)-1H-pyrrolo[3,2-c]pyridin-6-ylamino) benzonitrile] | 150 nM
CNC(=O)c1ccc(Nc2cc3[nH]c(-c4cnn(C)c4)cc3cn2)c(OC)c1 [Example 133, 3-Methoxy-N-methyl-4-(2-(1-methyl-1H-pyrazol-4-yl)-1H-pyrrolo[3,2-c]pyridin-6-ylamino)benzamide] | 27 nM
COc1cc(CN(C)C)ccc1Nc1cc2[nH]c(-c3cnn(C)c3)cc2cn1 [Example 139, N-(4-((dimethylamino)methyl)-2-methoxyphenyl)-2-(1-methyl-1H-pyrazol-4-yl)-1H-pyrrolo[3,2-c]pyridin-6-amine] | 55 nM
CN(C)C(=O)c1ccc(Nc2cc3[nH]c(-c4cnco4)c(Cl)c3cn2)c(Cl)c1 [Example 178, 3-Chloro-4-(3-chloro-2-(oxazol-5-yl)-1H-pyrrolo[3,2-c]pyridin-6-ylamino)-N,N-dimethylbenzamide] | 3 nM
COc1cc(CN2CCCC2)ccc1Nc1cc2[nH]c(-c3cnn(C)c3)cc2cn1 [Example 137, N-(2-methoxy-4-(pyrrolidin-1-ylmethyl)phenyl)-2-(1-methyl-1H-pyrazol-4-yl)-1H-pyrrolo[3,2-c]pyridin-6-amine] | 25 nM
COc1cc(C(=O)N2CC(OC)C2)ccc1Nc1cc2[nH]c(-c3cnco3)cc2cn1 [Example 179, (3-Methoxy-4-(2-(oxazol-5-yl)-1H-pyrrolo[3,2-c]pyridin-6-ylamino)phenyl)(3-methoxyazetidin-1-yl)methanone] | 3 nM
Cc1ncc(-c2ccc(Nc3cc4c(cn3)cc(-c3cnco3)n4C(=O)OC(C)C)c(Cl)c2)n1C [Example 106] | 2 nM
Cn1cc(-c2cc3cnc(Nc4cccc(OCC#N)c4)cc3n2C(=O)OC(C)(C)C)cn1 [Example 36] | 156 nM
COc1cc(-c2cn(C)nc2C)ccc1Nc1cc2c(cn1)cc(-c1cnn(C)c1)n2C(=O)OC(C)C [Example 103] | 2 nM
Cn1cc(-c2ccc(Nc3cc4c(cn3)cc(-c3cnn(C)c3)n4C(=O)OC3CCCC3)c(Cl)c2)cn1 [Example 75] | 12 nM
FC(F)(F)c1ccccc1Nc1cc2[nH]c(-c3cn[nH]c3)cc2cn1 [Example 164, 2-(1H-Pyrazol-4-yl)-N-(2-(trifluoromethyl)phenyl)-1H-pyrrolo[3,2-c]pyridin-6-amine] | 512 nM
Cc1cc(Cn2c(-c3cnn(C)c3)cc3cnc(Nc4ccc(C(=O)N(C)C)cc4Cl)cc32)no1 [Example 90] | 343 nM
